Experimental data published in PMC5929447 (Oncotarget, 2018).

How the values were obtained:
[1] = tested on: Burkitt lymphoma cell lines; test: CellTiter-Glo viability, Burkitt lymphoma cell line panel; type: cell-based; details: 72 h; all Burkitt lymphoma cell lines tested
Experimental: Cells were seeded into 96-well plates and treated at 8 points with 1:2 serial dilution of compounds. Cell viability was assessed and assayed for viability using CellTiter-Glo reagent (Promega) following the manufacturer's instructions. Plates were read using Tecan luminescence plate reader. Results were normalized to the viability of cells without compounds (control wells). The IC50 values were calculated using nonlinear regression algorithms in XCell software.

[2] = molecular target: BCL-2/BAX complex (Homo sapiens, UniProt P10415); test: Co-immunoprecipitation in RS4;11 cells; type: cell-based; details: 2 h, increasing concentrations
Chain of BCL-2/BAX complex (P10415 whole entry, one chain of several): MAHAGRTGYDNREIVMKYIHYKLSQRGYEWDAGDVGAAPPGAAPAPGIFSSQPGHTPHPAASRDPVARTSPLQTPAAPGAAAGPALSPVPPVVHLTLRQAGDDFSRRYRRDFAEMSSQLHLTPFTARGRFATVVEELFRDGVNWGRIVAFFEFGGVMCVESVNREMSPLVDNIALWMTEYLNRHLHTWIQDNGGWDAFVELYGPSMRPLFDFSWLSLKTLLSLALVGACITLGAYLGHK

[3] = tested on: Toledo xenograft; test: Toledo xenograft efficacy; type: in vivo, mice; details: day 21; for Mean TV change: mean ± s.e.m.
Experimental: Experiments were performed in SCID/beige female mice from Charles River Laboratories, Massachusetts, USA. Animals, approximately 7-8 weeks of age at the start of the treatment were allowed to acclimate in animal facility with access to food and water ad libitum for 3 days prior to manipulation. Animals were handled in accordance with IACUC regulations and guidelines for experiments performed in the USA and with European and French regulation for the protection of vertebrate animals for experiments performed in France. Animal well-being and behavior, including grooming and ambulation were monitored at least once a day. General health of mice was monitored and mortality recorded daily. Any moribund animals were sacrificed.
RS4;11 Acute Lymphoblastic Leukemia cell lines was obtained from ATCC. Toledo (Diffuse Large B-Cell Lymphoma) human cell lines were obtained internally through Bioresources and the Novartis-Cancer Cell Line Encyclopedia. Cells were free of Mycoplasma and murine viral contamination in the IMPACT VIII PCR assay panel (IDEXX RADIL, IDEXX laboratories INC, Westbrook, ME, USA). Cells used for subcutaneous implantation were cultured in RPMI plus 10% FBS at 37° C in a humidified atmosphere containing 5% carbon dioxide). […] Cells were resuspended in a 1:1 mixture of cold DPBS (Dulbecco's Phosphate-Buffered Saline) and Matrigel™ (Becton-Dickinson #354234) at a concentration of 3 × 10^7 cells/ml for Toledo cells, and of 1 × 10^7 cells/ml for RS4;11 cells.
For each experiment, female SCID/beige mice were implanted subcutaneously (right axillary region) with 3 × 10^6 Toledo or RS4;11 (1 × 10^6 cells for efficacy studies and 1 × 10^7 cells for pharmacodynamics studies) suspended in 1:1 mixture of cold DPBS and Matrigel™ in a total volume of 100 μl. Body weights were recorded and tumors were measured with digital calipers twice to three times a week. Tumor volume was calculated using the formula: length × width^2/2. Percent changes in body weights was calculated as (BWcurrent - BWinitial)/(BWinitial) × 100. Data is presented as percent body weight change from the day of treatment initiation.
When tumors reached approximately 200 mm^3 for efficacy studies or 300 mm^3 for pharmacodynamic studies, mice were randomized. […] Mice were treated via oral gavage at 10 ml/kg with the doses and schedules described in the figure.
For efficacy studies, percent treatment/control (T/C) values were calculated using the following formula: %T/C = 100 × ΔT/ΔC if ΔT > 0. Regression = 100 × ΔT/Tinitial if ΔT < 0 where: T = mean tumor burden of the drug-treated group on the final day of the study; ΔT = mean tumor burden of the drug-treated group on the final day of the study – mean tumor burden of the drug-treated group on initial day of dosing; Tinitial = mean tumor burden of the drug-treated group on initial day of dosing; C = mean tumor burden of the control group on the final day of the study; and ΔC = mean tumor burden of the control group on the final day of the study – mean tumor burden of the control group on initial day of dosing. If the tumor volume was less than 14 mm^3 for more than 3 consecutive measurements, animals were considered in complete regression (CR).

[4] = tested on: isolated platelets from healthy volunteers; test: Apoptosis (annexin V) in isolated platelets; type: cell-based; details: Homo sapiens, Platelet; 4 healthy donors, 3 h; read-out: EC50 apoptosis (PS+) in isolated platelets
Experimental: Peripheral blood samples from CLL patients were obtained with informed patient consent and local ethical committee approval (UHL-09723). […] Interphase fluorescence in situ hybridization (FISH) was performed for detection of 17p13 deletion. Mantle cell lymphoma (MCL) primary cells were obtained after informed consent from MCL patients treated at the department of clinical hematology from the University Hospital of Nantes, France. Peripheral MCL cells from blood or pleural effusion, were purified after Ficoll-Hypaque separation with immuno-magnetic anti-CD19 beads (Miltenyi, Paris, France). Primary cells were cultured in RPMI-1640 supplemented with 10% FCS and 2 mM glutamine. Human platelets were isolated from citrate blood donated by healthy volunteers. Washed platelets were cultured in Hepes-buffered saline (HBS, 10 mM Hepes, 150 mM NaCl, 5 mM KCl, 1 mM MgSO4, pH 7.4).
EC50 values were calculated using GraphPadPrism (non-linear fit, sigmoidal dose response, variable slope). […] Cell death was assessed in the CD19+ primary MCL cells by annexinV-FITC staining combined with an analysis of altered cellular morphology (lower FCS). Fluorescence was analyzed on FACSCalibur.

[5] = molecular target: BCL-XL (Homo sapiens, UniProt Q07817); test: Fluorescence polarization (FP) with Fluorescein-PUMA, BCL-XL; type: binding; details: Fluorescein-PUMA as binder; read-out: FP_BCL-XL_KI
Chain of BCL-XL (Q07817 whole entry): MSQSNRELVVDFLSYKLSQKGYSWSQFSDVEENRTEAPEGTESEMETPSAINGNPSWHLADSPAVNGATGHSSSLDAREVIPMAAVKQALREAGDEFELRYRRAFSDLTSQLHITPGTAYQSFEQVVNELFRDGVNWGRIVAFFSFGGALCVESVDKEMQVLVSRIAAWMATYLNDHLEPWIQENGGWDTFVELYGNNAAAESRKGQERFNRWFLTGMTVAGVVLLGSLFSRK
Experimental: Final concentrations of MCL-1, BFL-1, BCL-2 and BCL-XL proteins were 10, 10, 10 and 20 nM respectively. The assay plates were incubated for 2 hours at room temperature and the FP was measured on a Synergy 2 reader (Ex. 528 nm, Em. 640 nm, Cut-off 510 nm). The binding of increasing doses of compound was expressed as a percentage reduction in mP compared to the window established between ‘DMSO only’ and ‘total inhibition’ control (30 μM PUMA). […] The KI was subsequently calculated as previously described [42].

[6] = tested on: RS4;11 cells; test: Apoptosis hallmarks in RS4;11 cells (annexin V/PI flow cytometry, MSD cleaved caspase-3 and PARP); type: cell-based
Experimental: Cells were incubated with 200 μl of binding buffer containing AnnexinV-FITC (Invitrogen) and propidium iodide (PI, Sigma) during 15 min at 20° C in the dark. THP-1 cells were incubated with 200 μl of binding buffer containing AnnexinV-APC (BD Biosciences) and DAPI (Sigma). 400 μl of binding buffer was added and samples were kept at 4° C before cytometric analysis. […] Fluorescence was collected at 520 (FITC), 630 nm (PI), 660 nm (APC) and 470 (DAPI). Numbers of apoptotic cells (addition of primary apoptosis, secondary apoptosis and necrosis) was normalized to the total numbers of cells per tubes. page 6: Cleaved PARP and cleaved caspase-3 Cleared lysates (5 μg) were assayed for immunodetection immunodetection by MesoScale Discovery of cleaved PARP and cleaved caspase-3 with MSD (MSD) assay Apoptosis Panel Whole Cell Lysate kit (MSD […]) in 96-well plates according to manufacturer 's instructions, 24 h after seeding, cells were treated with the and analyzed on the Sector Image 2400. Control DMSO indicated compounds for 4 h and harvested in lysis buffer conditions were set to 100% and fold-activation calculated. […] Cleaved caspase-3 (C) and cleaved PARP (D) was measured using MesoScale Discovery Apoptosis panel. […]

[7] = 200 mg/kg oral five times a week for 3 weeks
[8] = 300 mg/kg oral five times a week for 3 weeks

## O=C(c1cc(-c2cc3c(cc2C(=O)N2Cc4ccccc4C[C@H]2CN2CCOCC2)OCO3)n2c1CCCC2)N(c1ccccc1)c1ccc(O)cc1 [S55746]
[1]
  IC50: > 10000 nM
[2]
  disruption of the BCL-2/BAX complex in RS4;11 cells: concentration-dependent disruption of the BCL-2/BAX complex
[3]; [7]
  % T/C: 13 % T/C
  Mean TV change: 239.03 ± 67.97 mm3
[3]; [8]
  % T/C: 2 % T/C
  Mean TV change: 33.16 ± 37.38 mm3
[4]
  EC50: > 3000 nM
[5]
  Ki: 520 nM
[6]; 2 h
  apoptosis induction, externalization of phosphatidylserine (PS+ cells): rapidly induced apoptosis in a concentration dependent-manner
[6]; MSD assay
  cleavage of caspase-3 and PARP: observed upon treatment by S55746 in a concentration dependent manner
